Experimental data reported in PubChem BioAssay AID1963826 (Molecular Pharmacology Branch, DTP, NCI, 2024).

System: 926638-142-R-J1-PDC complex spheroid viability
Assay: Anticancer human tumor 926638-142-R-J1-PDC patient-derived endometrial carcinoma cell line growth inhibition [POLQ]
Conditions: for IC50: curve of first compound; for viability, T/C: stronger effect = lower value; active = viability on the fitted dose curve at most 10% of control; inactive = the rest
Procedure: Multicellular complex tumor spheroid response to Polymerase (POL) inhibitors (novobiocin, ART-558, RP6685) in combination with a variety of drugs and investigational agents in selected tumor cell lines
The POL inhibitors (novobiocin, ART-558, and RP6685) were evaluated both individually and in combination with standard of care and investigational anticancer small molecules within a complex spheroid model of solid tumors. . Complex spheroids include a stromal component modeled by human endothelial cells (HUVEC) and fibroblasts modeled by human mesenchymal stem cells (MSCs). The concentration ranges selected for each drug and investigational agent were based upon clinically achievable concentrations if the clinical Cmax of the agent was known.
Compounds. The drugs and investigational agents: novobiocin (NSC847541), ART-558 (NSC835418), RP-6685 (NSC848927), peposertib (NSC802822), ceralasertib (NSC780249), elimusertib (NSC800525), camonsertib (NSC841442), AZD-1390 (NSC803789), olaparib (NSC753686), talazoparib (NSC767125), rucaparib (NSC756644), sotorasib (NSC818433), MRTX-1133 (NSC836407), SN-38 (NSC673596), topotecan (NSC609699), epotoside (NSC141540), doxorubicin (NSC123127), gemcitabine (NSC613327), 5-fluorouracil (NSC19893), paclitaxel (NSC125973), vemurafenib (NSC761431), MSA-2 (NSC828583), SN-011 (NSC837082), adavosertib (NSC754352), prexasertib (NSC758257), carboplatin (NSC241240) and oxaliplatin (NSC266046), were obtained from the National Cancer Institute (NCI) Developmental Therapeutics Program Chemical Repository (21). The FDA-approved anticancer drug set is available from the Developmental Therapeutics Program at https://dtp.cancer.gov/organization/dscb/obtaining/. […] The stock solutions were prepared in dimethyl sulfoxide (DMSO, Sigma-Aldrich, St. Louis, MO, cat. D2650), except for the platinum compounds which were prepared in saline (Quality Biological, Gaithersburg, MD, cat. 114-055-101), at 800-fold the tested concentration and stored at -70 degrees C prior to their use. All drugs and investigational agents were tested over a range starting from a high concentration at or near the clinical Cmax and decreasing in half-log increments. If the clinical Cmax for an agent had not been determined, the highest concentration tested was 10 microM, except for SN-38, which was tested at a high concentration of 1 microM.
Cell Culture. All cells were maintained in an incubator at 37 degrees C and 5% CO2 with 95% humidity. The PDC lines were cultured according to standard operating procedures established by the NCI PDMR (https://pdmr.cancer.gov). Table 3 of the manuscript, lists the cell lines along with the number of the three cell types plated to form the mct-spheroids and media for tumor cell growth. After thawing, all PDC lines, except 997537-175-T-J1-PDC and 415267-285-R-J2-PDC, were cultured in Matrigel-coated flasks prepared with a working solution of 1X Ham's F-12 nutrient mix, without supplementation (Thermo Fisher Scientific, cat. 11765054), 100 U/mL penicillin-streptomycin (Thermo Fisher Scientific, cat. 15140122), and 2.5% Matrigel (Corning Inc., Corning, NY, cat. 354248) for the first three passages. The two PDC lines 997537-175-T-J1-PDC and 415267-285-R-J2-PDC were cultured on uncoated flasks. The 857933-349-R-J2-PDC line was cultured in 6C/Colon 1B media containing advanced DMEM/F-12 (Thermo Fisher Scientific, cat. 12634028), 10 mM HEPES (Thermo Fisher Scientific, cat. 15630080), 1X GlutaMAX supplement (Thermo Fisher Scientific, cat. 35050061), 0.1 mg/mL primocin (InvivoGen, San Diego, CA, cat. ant-pm-2), 10% defined fetal bovine serum, heat inactivated (HyClone Laboratories Inc., Logan, UT, cat. SH30070.03HI), 50% L-WRN conditioned media (ATCC, cat. CRL-3276), 1.25 mM N-Acetyl-L-cysteine (Sigma-Aldrich, cat. A9165), 10 mM nicotinamide (Sigma-Aldrich, cat. N0636), 1X B-27 supplement (Thermo Fisher Scientific, cat. 17504044), 1X N-2 supplement (Thermo Fisher Scientific, cat. […]

[1] = second compound 0.0316 µM, first compound 0.0316 µM
[2] = second compound 0.0316 µM, first compound 0.1 µM
[3] = second compound 0.0316 µM, first compound 0.316 µM
[4] = second compound 0.0316 µM, first compound 1 µM
[5] = second compound 0.1 µM, first compound 0.0316 µM
[6] = second compound 0.1 µM, first compound 0.1 µM
[7] = second compound 0.1 µM, first compound 0.316 µM
[8] = second compound 0.1 µM, first compound 1 µM
[9] = second compound 0.316 µM, first compound 0.0316 µM
[10] = second compound 0.316 µM, first compound 0.1 µM
[11] = second compound 0.316 µM, first compound 0.316 µM
[12] = second compound 0.316 µM, first compound 1 µM
[13] = second compound 1 µM, first compound 0.0316 µM
[14] = second compound 1 µM, first compound 0.1 µM
[15] = second compound 1 µM, first compound 0.316 µM
[16] = second compound 1 µM, first compound 1 µM
[17] = second compound 3.16 µM, first compound 0.0316 µM
[18] = second compound 3.16 µM, first compound 0.1 µM
[19] = second compound 3.16 µM, first compound 0.316 µM
[20] = second compound 3.16 µM, first compound 1 µM
[21] = second compound 10 µM, first compound 0.0316 µM
[22] = second compound 10 µM, first compound 0.1 µM
[23] = second compound 10 µM, first compound 0.316 µM
[24] = second compound 10 µM, first compound 1 µM
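Also: spheroids exposed to drugs for one week before readout.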
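For viability, T/C in this document: percent viability relative to DMSO vehicle control wells set as 100%.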

CCc1c2c(nc3ccc(O)cc13)-c1cc3c(c(=O)n1C2)COC(=O)[C@]3(O)CC + COC1C(OC(N)=O)C(O)C(Oc2ccc3c(O)c(NC(=O)c4ccc(O)c(CC=C(C)C)c4)c(=O)oc3c2C)OC1(C)C
10.7 nM: IC50 (second compound 1 µM)
8.81 nM: IC50 (second compound 0.0316 µM)
active: viability, T/C [3] 7.89% | viability, T/C [4] 4.74% | viability, T/C [8] 4.58% | viability, T/C [11] 9.36% | viability, T/C [12] 4.49% | viability, T/C [15] 8.68% | viability, T/C [16] 5.03% | viability, T/C [19] 8.91% | viability, T/C [20] 5.57% | viability, T/C [23] 9.84% | viability, T/C [24] 6.1%
12.6 nM: IC50 (second compound 0.1 µM)
13.6 nM: IC50 (second compound 10 µM)
12.1 nM: IC50 (second compound 3.16 µM)
11.9 nM: IC50 (second compound 0.316 µM)
inactive: viability, T/C (second compound 0.0316 µM, first compound 0.00316 µM) 79.4% | viability, T/C (second compound 0.0316 µM, first compound 0.01 µM) 42% | viability, T/C [1] 30.3% | viability, T/C [2] 19.2% | viability, T/C (second compound 0.1 µM, first compound 0.00316 µM) 65.7% | viability, T/C (second compound 0.1 µM, first compound 0.01 µM) 54.1% | viability, T/C [5] 35.9% | viability, T/C [6] 17.1% | viability, T/C [7] 14.9% | viability, T/C (second compound 0.316 µM, first compound 0.00316 µM) 68.6% | viability, T/C (second compound 0.316 µM, first compound 0.01 µM) 54% | viability, T/C [9] 32% | viability, T/C [10] 19.1% | viability, T/C (second compound 1 µM, first compound 0.00316 µM) 61.8% | viability, T/C (second compound 1 µM, first compound 0.01 µM) 53.5% | viability, T/C [13] 30.4% | viability, T/C [14] 20.2% | viability, T/C (second compound 3.16 µM, first compound 0.00316 µM) 57.8% | viability, T/C (second compound 3.16 µM, first compound 0.01 µM) 49.7% | viability, T/C [17] 40.5% | viability, T/C [18] 17.7% | viability, T/C (second compound 10 µM, first compound 0.00316 µM) 59.1% | viability, T/C (second compound 10 µM, first compound 0.01 µM) 57.4% | viability, T/C [21] 35.7% | viability, T/C [22] 21.5%

CNCc1ccc(-c2[nH]c3cc(F)cc4c3c2CCNC4=O)cc1 + COC1C(OC(N)=O)C(O)C(Oc2ccc3c(O)c(NC(=O)c4ccc(O)c(CC=C(C)C)c4)c(=O)oc3c2C)OC1(C)C
> 10000 nM: IC50 (second compound 0.0316 µM) | IC50 (second compound 0.1 µM) | IC50 (second compound 0.316 µM) | IC50 (second compound 1 µM) | IC50 (second compound 3.16 µM) | IC50 (second compound 10 µM)
inactive: viability, T/C [1] 92% | viability, T/C [2] 82.2% | viability, T/C [3] 96% | viability, T/C [4] 81% | viability, T/C (second compound 0.0316 µM, first compound 3.16 µM) 87.7% | viability, T/C (second compound 0.0316 µM, first compound 10 µM) 76.7% | viability, T/C [5] 78.9% | viability, T/C [6] 99.9% | viability, T/C [7] 77.2% | viability, T/C [8] 89.2% | viability, T/C (second compound 0.1 µM, first compound 3.16 µM) 80.1% | viability, T/C (second compound 0.1 µM, first compound 10 µM) 81.2% | viability, T/C [9] 90.5% | viability, T/C [10] 81.1% | viability, T/C [11] 84.9% | viability, T/C [12] 90.5% | viability, T/C (second compound 0.316 µM, first compound 3.16 µM) 101% | viability, T/C (second compound 0.316 µM, first compound 10 µM) 84.6% | viability, T/C [13] 77.3% | viability, T/C [14] 73.9% | viability, T/C [15] 73.8% | viability, T/C [16] 89.9% | viability, T/C (second compound 1 µM, first compound 3.16 µM) 94.8% | viability, T/C (second compound 1 µM, first compound 10 µM) 69% | viability, T/C [17] 82.3% | viability, T/C [18] 93.9% | viability, T/C [19] 90.7% | viability, T/C [20] 71.2% | viability, T/C (second compound 3.16 µM, first compound 3.16 µM) 88.2% | viability, T/C (second compound 3.16 µM, first compound 10 µM) 85.2% | viability, T/C [21] 89.8% | viability, T/C [22] 79.9% | viability, T/C [23] 83.8% | viability, T/C [24] 70.5% | viability, T/C (second compound 10 µM, first compound 3.16 µM) 84.4% | viability, T/C (second compound 10 µM, first compound 10 µM) 83%
